Biological target: recombinant human CL receptor/RAMP1 (Homo sapiens (Human), UniProt O60894+Q16602)
Assay: Recombinant receptor binding assay (125I-hCGRP)
Conditions: membranes of HEK 293 cells expressing human CL receptor/RAMP1, 10 pM 125I-hCGRP
Procedure: RECOMBINANT RECEPTOR: Human CL receptor (Genbank accession number L76380) was subcloned into the expression vector pIREShyg2 (BD Biosciences Clontech) as a 5′NheI and 3′ PmeI fragment. Human RAMP 1 (Genbank accession number AJ001014) was subcloned into the expression vector pIRESpuro2 (BD Biosciences Clontech) as a 5′NheI and 3′NotI fragment. HEK 293 cells (human embryonic kidney cells; ATCC #CRL-1573) were cultured in DMEM with 4.5 g/L glucose, 1 mM sodium pyruvate and 2 mM glutamine supplemented with 10% fetal bovine serum (FBS), 100 units/mL penicillin and 100 μg/mL streptomycin, and maintained at 37° C. and 95% humidity. Cells were subcultured by treatment with 0.25% trypsin with 0.1% EDTA in HBSS. Stable cell line generation was accomplished by co-transfecting 10 μg of DNA with 30 μg Lipofectamine 2000 (Invitrogen) in 75 cm^2 flasks. CL receptor and RAMP1 expression constructs were co-transfected in equal amounts. Twenty-four hours after transfection the cells were diluted and selective medium (growth medium+300 μg/mL hygromycin and 1 μg/mL puromycin) was added the following day. A clonal cell line was generated by single cell deposition utilizing a FACS Vantage SE (Becton Dickinson). Growth medium was adjusted to 150 μg/mL hygromycin and 0.5 μg/mL puromycin for cell propagation.
RECOMBINANT RECEPTOR BINDING ASSAY: Cells expressing recombinant human CL receptor/RAMP1 were washed with PBS and harvested in harvest buffer containing 50 mM HEPES, 1 mM EDTA and Complete protease inhibitors (Roche). The cell suspension was disrupted with a laboratory homogenizer and centrifuged at 48,000 g to isolate membranes. The pellets were resuspended in harvest buffer plus 250 mM sucrose and stored at −70° C. For binding assays, 20 μg of membranes were incubated in 1 ml binding buffer (10 mM HEPES, pH 7.4, 5 mM MgCl2, and 0.2% BSA) for 3 hours at room temperature containing 10 pM ^125I-hCGRP (GE Healthcare) and antagonist. The assay was terminated by filtration through 96-well GFB glass fiber filter plates (PerkinElmer) that had been blocked with 0.05% polyethyleneimine. The filters were washed 3 times with ice-cold assay buffer (10 mM HEPES, pH 7.4 and 5 mM MgCl2). Scintillation fluid was added and the plates were counted on a Topeount (Packard). Non-specific binding was determined and the data analysis was carried out with the apparent dissociation constant (Ki) determined by using a non-linear least squares fitting the bound CPM data to the equation below:
[formula] Where Y is observed CPM bound, Ymax is total bound counts, Ymin is non specific bound counts, (Ymax−Ymin) is specific bound counts, % Imax is the maximum percent inhibition, % I min is the minimum percent inhibition, radiolabel is the probe, and the Kd is the apparent dissociation constant for the radioligand for the receptor as determined by Hot saturation experiments.

recombinant human CL receptor/RAMP1, sequence (Q16602 23-461): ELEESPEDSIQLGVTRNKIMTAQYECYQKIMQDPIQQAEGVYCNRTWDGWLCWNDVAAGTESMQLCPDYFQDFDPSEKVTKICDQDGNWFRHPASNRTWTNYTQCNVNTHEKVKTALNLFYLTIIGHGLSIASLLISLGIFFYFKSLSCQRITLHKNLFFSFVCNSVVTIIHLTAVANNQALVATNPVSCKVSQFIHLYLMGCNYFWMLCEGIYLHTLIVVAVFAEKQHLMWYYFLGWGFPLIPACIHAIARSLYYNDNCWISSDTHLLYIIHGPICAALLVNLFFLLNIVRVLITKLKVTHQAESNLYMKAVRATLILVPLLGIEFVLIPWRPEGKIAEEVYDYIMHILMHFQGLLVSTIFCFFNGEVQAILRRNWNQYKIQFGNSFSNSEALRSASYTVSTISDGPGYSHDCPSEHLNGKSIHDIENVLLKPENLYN
recombinant human CL receptor/RAMP1, sequence (O60894 27-148): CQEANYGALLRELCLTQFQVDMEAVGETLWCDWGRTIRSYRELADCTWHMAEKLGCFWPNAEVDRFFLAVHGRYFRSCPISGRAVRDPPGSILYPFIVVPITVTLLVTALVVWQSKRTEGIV

CN1C(=O)NC(=O)C12Cc1cc3ccc(CN4CCC(Cc5ccccc5)CC4)nc3cc1C2 (racemic) [Example 7, (±)-2-[(4-Benzylpiperidin-1-yl)methyl]-3′-methyl-6,8-dihydro-2′H,5′H-spiro[cyclopenta[g]quinoline-7,4′-imidazolidine]-2′,5′-dione]
Ki: 3800 nM

CC1(C)CN(Cc2ccc3cc4c(cc3n2)C[C@]2(C4)C(=O)Nc3ncccc32)[C@@H](Cc2ccccc2)C(=O)N1 [Example 3, (7S)-2-{[(2S)-2-Benzyl-5,5-dimethyl-3-oxopiperazin-1-yl]methyl}-6,8-dihydrospiro[cyclopenta[g]quinoline-7,3′-pyrrolo[2,3-b]pyridin]-2′(1′H)-one]
Ki: 0.77 nM

CN1C(=O)NC(=O)[C@]12Cc1cc3ccc(CN4C(=O)C(C)(C)Nc5ccccc54)nc3cc1C2 [Example 8, (7R)-2-[(3,3-Dimethyl-2-oxo-3,4-dihydroquinoxalin-1(2H)-yl)methyl]-3′-methyl-6,8-dihydro-2′H,5′H-spiro[cyclopenta[g]quinoline-7,4′-imidazolidine]-2′,5′-dione]
Ki: 35 nM

O=C1Nc2ncccc2C12Cc1cc3ccc(CN4CCc5c([nH]c6ccccc56)C4)nc3cc1C2 (stereo not shown) [Example 45]
Ki: 180 nM

CC(C)(C)OC(=O)N1CCN(Cc2ccc3cc4c(cc3n2)C[C@]2(C4)C(=O)Nc3ncccc32)CC1c1ccccc1 (stereo partly shown) [Example 61]
Ki: 58 nM

O=C1Nc2ncccc2[C@@]12Cc1cc3ccc(CN4CCNCC4c4ccccc4)nc3cc1C2 (stereo partly shown) [Example 64]
Ki: 6.6 nM

O=C1NC2(CCCC2)CN(Cc2ccc3cc4c(cc3n2)C[C@]2(C4)C(=O)Nc3ncccc32)C1c1ccccc1 (stereo partly shown) [Example 69]
Ki: 43 nM

O=C1Nc2ncccc2[C@@]12Cc1cc3ccc(CN4CCNCC4)nc3cc1C2 [Example 76]
Ki: 0.73 nM

O=C1N[C@H](Cc2ccccc2)CN(Cc2ccc3cc4c(cc3n2)C[C@]2(C4)C(=O)Nc3ncccc32)C1c1ccccc1 (stereo partly shown) [Example 84]
Ki: 0.72 nM

O=C1NC2(CCCC2)CN(Cc2ccc3cc4c(cc3n2)C[C@]2(C4)C(=O)Nc3ncccc32)C1Cc1ccccc1 (stereo partly shown) [Example 87]
Ki: 0.34 nM

O=C1NC2(CCCC2)CN(Cc2ccc3cc4c(cc3n2)C[C@]2(C4)C(=O)Nc3ncccc32)[C@@H]1Cc1ccccc1 [Example 88]
Ki: 2.6 nM

CC1(Cc2ccccc2)C(=O)NC2(CCCC2)CN1Cc1ccc2cc3c(cc2n1)C[C@]1(C3)C(=O)Nc2ncccc21 (stereo partly shown) [Example 95]
Ki: 17 nM

O=C1CC2(CCN(Cc3ccc4cc5c(cc4n3)CC3(C5)C(=O)Nc4ncccc43)CC2)Oc2ccccc21 (stereo not shown) [Example 114]
Ki: 15000 nM
